In brackets after ≈: the same amount, converted by molar mass. Entries after “also recorded” stand apart in the source; their conditions may differ.
Assays:
Format in all cases: physicochemical
[1] = Long-term stability study at −20±5 °C and 5±3 °C away from light (HDPE bottle, LDPE bag, aluminum foil bag); conditions: pure API, current limited stability data
From the text: (§1) The samples used for the stability study were inner-packaged in an HDPE bottle with a screw cap and outer-packaged in an LDPE bag with a pull button placed in a heat-sealing aluminum foil bag.
(§2) The water content (mass percentage), content, purity (chemical purity) and enantiomeric excess (e.e %) values were detected at 0, 1, 2, 3, 6, 9, 12, 18, 24, 36 and 42 months, respectively. The samples of batches 024101, 034101 and 044101 were used in the experiments.

[2] = Choice of solvent during distillation in the preparation of AST-3424
From the text: In the preparation of the AST-3424, in order to remove the solvent, water, etc., used in the preparation and separation processes by distillation as much as possible, the applicant mixes the oily AST-3424 product separated and purified with various common solvents (ethyl acetate, ethanol, methanol, etc.) and performs distillation under reduced pressure after the mixture is heated at a lower temperature. […] Therefore, ethanol is ultimately used through initial confirmation.

[3] = Solubility test of AST-3424 in different solvents at 25 °C
Procedure: A proper amount of AST-3424 (hereinafter referred to as active pharmaceutical ingredient or API) was taken and placed into a proper container, a solvent was gradually added thereto, the mixture was uniformly shaken, the process of the solution changing from turbidity (excessive oil drops of AST-3424 exist) to clarification (AST-3424 is completely dissolved) was observed, the volume of the solvent for clarifying the mixed solution of AST-3424 was recorded, and the solubility was calculated.
In addition, water was further used for the experiment.

[4] = Stability of AST-3424 solutions (about 90 mg/mL) in different solvents, high-temperature destruction 40 °C, 3 days
Procedure: The AST-3424 solutions (contents were about 90 mg/mL) dissolved in different solvents were subjected to high-temperature destruction (40 °C, 3 days). The purity was detected. The destructed solutions were compared with samples not subjected to the destruction (40 °C, 3 days). The stability of AST-3424 in different solvents was examined.
Purity was determined by using an HPLC method:
Mobile phase: • A: 10 mmol/L ammonium acetate solution obtained by dissolving ammonium acetate in a mixed solvent of 95% water and 5% acetonitrile by volume ratio; and • B: 8 mmol/L ammonium acetate solution obtained by dissolving ammonium acetate in a mixed solvent of 95% acetonitrile and 5% water by volume ratio; and
A gradient elution was performed.

[5] = as above; conditions: dissolved in propylene glycol, compared with other solvents
[6] = Observation of viscosity of AST-3424 (FIG. 3); conditions: neat AST-3424, FIG. 3
From the text: Therefore, it is inconvenient to transfer and sub-package it, and solvents are needed to reduce the viscosity thereof.

[7] = Accelerated stability experiment at 25±2 °C and 60±5% RH away from light; conditions: 25 °C, after 2 months
From the text: as §1, §2

[8] = absolute ethanol, 40 °C, 3 days
[9] = propylene glycol, 40 °C, 3 days

C[C@H](OP(=O)(N1CC1)N1CC1)c1ccc([N+](=O)[O-])c(Oc2cccc(C(=O)N(C)C)c2)c1 [AST-3424, (S)-1-(3-(3-N,N-dimethylaminocarbonyl)phenoxy-4-nitrophenyl)-1-ethyl-N,N′bis(ethylene)phosphoramidate]
Stability compared with AST-3424 ethanol solution [1]: better than that of the AST-3424 ethanol solution
solubility ([2]; ethanol): almost infinitely dissolve
solubility ([2]; ethyl acetate): not high enough
solubility ([2]; methanol): good solubility
Phenomenon (solubility in words) ([3]; ethanol, table cell continues '(mutually soluble)'): good solubilities; also recorded: good solubility and stability; also recorded: Very soluble
Phenomenon (solubility in words) ([3]; ethyl acetate, table cell continues '(mutually soluble)'): Very soluble
solubility ([3]; organic solvent or mixture, ethanol): > 1000 mg/mL
solubility ([3]; organic solvent or mixture, ethyl acetate): > 1000 mg/mL
solubility ([3]; organic solvent or mixture, propylene glycol): > 100 mg/mL
Phenomenon (solubility in words) ([3]; propylene glycol, table cell continues 'soluble'): good solubilities; also recorded: good solubility and stability; also recorded: Freely
solubility ([3]; water): ~20 mg/mL (≈ 43.4 mM)
Phenomenon (solubility in words) ([3]; water, table cell continues 'soluble'): sparingly soluble; also recorded: poor solubility and stability
Chemical purity ([4]; 0 day (not subjected to destruction)): 99.3%
Stability in solvent ([4]; absolute ethanol): stable; also recorded: good solubility and stability
Chemical purity [4, 8]: 98.8%
Content of AST-3424 [4, 8]: 89.5 mg/mL
Stability in solvent ([4]; acetonitrile): stable
Chemical purity ([4]; acetonitrile, 40 °C, 3 days): 99.3%
Content of AST-3424 ([4]; acetonitrile, 40 °C, 3 days): 91.0 mg/mL
Stability in solvent ([4]; ethyl acetate): stable
Chemical purity ([4]; ethyl acetate, 40 °C, 3 days): 96.6%
Content of AST-3424 ([4]; ethyl acetate, 40 °C, 3 days): 96.1 mg/mL
Stability in solvent ([4]; propylene glycol): stable; also recorded: good solubility and stability
Chemical purity [4, 9]: 96.8%
Content of AST-3424 [4, 9]: 83.5 mg/mL
Stability in solvent ([4]; water): poor solubility and stability
Chemical purity ([4]; water, 40 °C, 3 days): 75.4%
Content of AST-3424 ([4]; water, 40 °C, 3 days): 89.2 mg/mL
Viscosity [5]: obviously higher viscosity; also recorded: high viscosity
Physical state / viscosity [6]: viscous oily substance
Degradation [7]: degraded rapidly
Purity [7]: less than 98%

Reference: US20260373175A1, “STABLE AST-3424 API PRODUCT, PREPARATION METHOD THEREFOR, AND STORAGE THEREOF” (ASCENTAWITS PHARMACEUTICALS, LTD., priority 2022, published 2026)
